Each compound was assayed against T1, Carbonic anhydrase (Helicobacter pylori (strain ATCC 700392 / 26695) (Campylobacterpylori), UniProt O24855).
T1 sequence (O24855 whole entry): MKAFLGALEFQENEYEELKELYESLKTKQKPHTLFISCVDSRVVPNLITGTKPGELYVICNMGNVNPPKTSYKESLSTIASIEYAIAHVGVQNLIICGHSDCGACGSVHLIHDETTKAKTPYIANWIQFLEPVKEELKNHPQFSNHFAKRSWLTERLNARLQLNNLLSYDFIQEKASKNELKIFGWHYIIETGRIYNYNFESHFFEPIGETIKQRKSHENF
Description: (§1) Inhibition of Helicobacter pylori recombinant CA

SMILES | Ki [nM]
CC1(C)O[C@@H]2[C@@H](CO[C@@]3(COS(N)(=O)=O)OC(C)(C)O[C@@H]23)O1 [TOPIRAMATE] | 205

These compounds were tested against carbonic anhydrase (Helicobacter pylori, UniProt O25798).
Chain of carbonic anhydrase (O25798 1-202): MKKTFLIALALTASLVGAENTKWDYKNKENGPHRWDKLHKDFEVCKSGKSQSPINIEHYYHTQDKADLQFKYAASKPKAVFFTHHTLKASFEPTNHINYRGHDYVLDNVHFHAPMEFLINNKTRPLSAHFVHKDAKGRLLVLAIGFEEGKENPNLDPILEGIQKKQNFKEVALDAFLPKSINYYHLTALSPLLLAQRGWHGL
Description: as §1

SMILES | Ki [nM]
NNc1ccccc1S(N)(=O)=O | 562
Nc1ccc(S(=O)(=O)NCc2ccc(S(N)(=O)=O)cc2)cc1 | 124
Nc1cc(Cl)c(S(N)(=O)=O)cc1S(N)(=O)=O | 41
Nc1ccc(S(N)(=O)=O)cc1I | 504
Nc1ccc(S(=O)(=O)Nc2nnc(S(N)(=O)=O)s2)cc1 | 213
NS(=O)(=O)c1nnc(-c2ccccc2Cl)s1 | 84
Nc1nccc(Nc2ccc(S(N)(=O)=O)cc2)n1 | 72
NS(=O)(=O)c1nc2ccc(O)cc2s1 | 174
Nc1ccc(S(N)(=O)=O)cc1Br | 463
Cn1nc(S(N)(=O)=O)sc1=N | 494
NS(=O)(=O)c1ccc(CCO)cc1 | 1160
Nc1ccc(S(N)(=O)=O)cc1F | 1310
NS(=O)(=O)c1ccc(CO)cc1 | 870
NCCc1ccc(S(N)(=O)=O)cc1 | 1040
Nc1ccc(S(N)(=O)=O)cc1Cl | 395
Nc1ccc(S(=O)(=O)NCCc2ccc(S(N)(=O)=O)cc2)cc1 | 96
NS(=O)(=O)c1ccc(S(=O)(=O)Nc2cccc3c(Cl)c[nH]c23)cc1 | 434
Nc1cc(C(F)(F)F)c(S(N)(=O)=O)cc1S(N)(=O)=O [2,4-DISULFAMYLTRIFLUOROMETHYLANILINE] | 402
NS(=O)(=O)c1nnc(NS(=O)(=O)c2ccccc2)s1 [BENZOLAMIDE] | 287
CCN[C@H]1CN(CCCOC)S(=O)(=O)c2sc(S(N)(=O)=O)cc21 [BRINZOLAMIDE] | 246
NS(=O)(=O)c1ccc(C(=O)O)cc1 [CARZENIDE] | 1080
CCOc1ccc2nc(S(N)(=O)=O)sc2c1 [ETHOXZOLAMIDE] | 155
NCc1ccc(S(N)(=O)=O)cc1 [MAFENIDE] | 830
Cc1ccc(S(N)(=O)=O)cc1 [P-TOLUENESULFONAMIDE] | 473
Nc1ccc(S(N)(=O)=O)cc1 [SULFANILAMIDE] | 431
